ChEMBL document CHEMBL1150224, “Antioxidant benzoylated flavan-3-ol glycoside from Celastrus orbiculatus” (J Nat Prod, 2001)
≈ marks a conversion by molar mass, not a printed value.

Tested on: Radical scavenging activity
Test: Antioxidant activity assessed as DPPH radical scavenging activity
Assay type: functional

Row | Compound | IC50
1 | VITAMIN E | 6.2 µg/mL
2 | Oc1cc(O)c2c(c1)O[C@H](c1ccc(O)c(O)c1)[C@H](O)C2 [(-)-EPICATECHIN] | 8.5 µg/mL (≈ 29.3 µM)
3 | O=C(O[C@@H]1Cc2c(O)cc(O)cc2O[C@@H]1c1cc(O)c(O)c(O)c1)c1cc(O)c(O)c(O)c1 [EPIGALOCATECHIN GALLATE] | 5.6 µg/mL (≈ 12.2 µM)
4 | Oc1ccc([C@H]2Oc3cc(O)cc(O)c3C[C@H]2O)cc1 [EPIAFZELECHIN (2R,3R)(-)] | 7.5 µg/mL (≈ 27.3 µM)
5 | COc1ccc(O)c(C(C)(C)C)c1.COc1ccc(O)cc1C(C)(C)C [BUTYLATED HYDROXYANISOLE] | 4.5 µg/mL

More lines, now with the values ahead:

Row | IC50 | Compound
6 | 17 µg/mL (≈ 43.1 µM) | O=C(O[C@@H]1Cc2c(O)cc(O)cc2O[C@@H]1c1ccc(O)c(O)c1)c1ccccc1
7 | 25 µg/mL (≈ 44.9 µM) | O=C(O[C@@H]1Cc2c(O[C@@H]3O[C@H](CO)[C@@H](O)[C@H](O)[C@H]3O)cc(O)cc2O[C@@H]1c1ccc(O)c(O)c1)c1ccccc1
